Laboratory results published in patent US8168199B2, “Dipeptidyl peptidase IV inhibitors for the treatment of schizophrenia and depression” (priority 2000, dated 2012).

Test system: Male WistarF/Han (WF) rats
Assay: Elevated plus maze (EPM) testing, i.c.v. P32/98
Assay type: in vivo, rat
Method: Animals. […]
Elevated plus maze (EPM) testing. […] The following parameters were calculated: Total numbers of arm entries (TA); entries to closed arms (CA); entries to open arms (OA); percentage frequency of entries to open arms (% OA: OA×100/TA); total trial duration (TT): 300 s; duration of stay in closed arms (closed time; CLT); percentage share of CLT in total arms-stay duration (CLT×100/AT); duration of stay in open arms (open time; OT) and percentage share of OT in total arm-stay duration (% OT: OT×100/AT). In addition to the standard spatiotemporal measurements, “time spent and percentage of time on the central square” were recorded (center time, CT: duration of stay on platform in seconds; percentage share of CT in trial duration, % CT: CT×100/TT). […]

CC[C@H](C)[C@H](N)C(=O)N1CCSC1 [P32/98]
effect of treatment on percentage of time spent on the open arms (analysis of variance) (i.c.v. aCSF, 0.05, 5, 500 nmol): significant effect
percentage of time spent on the open arms of the EPM (i.c.v. low dose 50 pmol, 60 min before test, vs aCSF): increased
